The results in this text go back to article PMC11198769, “Enhancement of transcription efficiency by TAR-Tat system increases the functional expression of human olfactory receptors” (PLOS ONE, 2024).

Test in all cases: Comprehensive analysis (screening) of hORs against n-hexanal
Assay type in all cases: cell-based

Test [1] deals with T1, OR10C1 (Homo sapiens, UniProt Q96KK4).
T1 construct: Lucy tag (N); expressed in transfected cells; host or cells: Flp-In T-REx-293 cells stably expressing RTP1S, Gαolf and Ric8-b
T1 sequence (Q96KK4 1-312): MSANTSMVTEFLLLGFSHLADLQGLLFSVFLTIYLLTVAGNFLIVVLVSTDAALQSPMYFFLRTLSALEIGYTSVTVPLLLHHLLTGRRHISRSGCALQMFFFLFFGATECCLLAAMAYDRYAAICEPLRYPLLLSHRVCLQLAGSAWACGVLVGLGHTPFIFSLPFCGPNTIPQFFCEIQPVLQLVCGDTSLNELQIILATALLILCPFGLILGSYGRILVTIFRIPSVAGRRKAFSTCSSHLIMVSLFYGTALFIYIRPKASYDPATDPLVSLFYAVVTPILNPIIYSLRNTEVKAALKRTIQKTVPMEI
As to conditions: OR10C1, 500 μM n-hexanal, with the TAR-Tat system (hOR/pHEK), n = 1. As for the experimental part: (§1) Transfection was performed as described in the “hOR assay,” but 12.5 ng of 379 hOR plasmids (hOR/pBApo and hOR/pHEK) was transfected with the 12.5 ng pGlosensor^TM-22F cAMP biosensor plasmid (Promega) in 384 plates per well. After loading the GloSensor cAMP substrate and preincubation, the assay buffer was added (30 μL/well). After 10 min of equilibration, luminescence was measured (L0). Then, 50 mM n-hexanal, which was diluted with 10% DMSO/assay buffer, was added (4.7 μL/well). After 9 min, luminescence was measured (L9min). All the L9min values were subtracted by the L0 value (ΔL).

Test [2] deals with T2, OR2J3 (Homo sapiens, UniProt O76001).
T2 construct: Lucy tag (N); FLAG (N); Rho tag (N); expressed in transfected cells; host or cells: Flp-In T-REx-293 cells stably expressing RTP1S, Gαolf and Ric8-b
T2 sequence (O76001 1-311): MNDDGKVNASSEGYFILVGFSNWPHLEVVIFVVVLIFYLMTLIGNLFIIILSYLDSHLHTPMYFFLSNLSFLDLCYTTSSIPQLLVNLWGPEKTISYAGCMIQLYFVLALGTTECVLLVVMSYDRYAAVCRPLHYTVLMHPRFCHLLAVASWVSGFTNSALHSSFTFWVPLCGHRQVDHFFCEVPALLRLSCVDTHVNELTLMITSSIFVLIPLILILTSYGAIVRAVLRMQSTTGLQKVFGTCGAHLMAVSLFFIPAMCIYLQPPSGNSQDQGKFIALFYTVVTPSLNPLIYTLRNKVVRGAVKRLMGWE
As to conditions: OR2J3, 500 μM n-hexanal, n = 1. As for the experimental part:
as §1

Test [3] addresses T3, OR1A1 (Homo sapiens, UniProt Q9P1Q5).
T3 construct: Lucy tag (N); FLAG (N); Rho tag (N); expressed in transfected cells; host or cells: Flp-In T-REx-293 cells stably expressing RTP1S, Gαolf and Ric8-b
T3 sequence (Q9P1Q5 1-309): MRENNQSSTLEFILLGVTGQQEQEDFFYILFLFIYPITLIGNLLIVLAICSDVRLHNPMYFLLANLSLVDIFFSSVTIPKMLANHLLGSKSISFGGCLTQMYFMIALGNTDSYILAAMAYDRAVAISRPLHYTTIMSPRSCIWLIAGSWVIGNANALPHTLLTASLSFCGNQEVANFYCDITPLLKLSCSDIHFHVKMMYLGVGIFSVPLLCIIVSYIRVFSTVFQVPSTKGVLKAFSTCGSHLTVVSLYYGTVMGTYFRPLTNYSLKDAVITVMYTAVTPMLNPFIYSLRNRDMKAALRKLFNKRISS
As to conditions: OR1A1, 500 μM n-hexanal, n = 1. As for the experimental part:
as §1

Test [4] deals with T4, OR5K1 (Homo sapiens, UniProt Q8NHB7).
T4 construct: Lucy tag (N); FLAG (N); Rho tag (N); expressed in transfected cells; host or cells: Flp-In T-REx-293 cells stably expressing RTP1S, Gαolf and Ric8-b
T4 sequence (Q8NHB7 1-308): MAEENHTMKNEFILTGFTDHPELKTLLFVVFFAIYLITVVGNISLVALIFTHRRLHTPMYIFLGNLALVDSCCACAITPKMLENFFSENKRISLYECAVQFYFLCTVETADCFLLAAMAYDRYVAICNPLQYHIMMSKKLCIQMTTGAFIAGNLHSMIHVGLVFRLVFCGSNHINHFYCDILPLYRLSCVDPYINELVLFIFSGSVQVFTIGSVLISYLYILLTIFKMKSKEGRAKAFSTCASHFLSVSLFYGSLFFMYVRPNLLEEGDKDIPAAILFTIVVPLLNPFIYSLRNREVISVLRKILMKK
As to conditions: OR5K1, 500 μM n-hexanal, with the TAR-Tat system (hOR/pHEK), n = 1. As for the experimental part: as §1

The target of test [5] is T5, OR2Z1 (Homo sapiens, UniProt Q8NG97).
T5 construct: Lucy tag (N); FLAG (N); Rho tag (N); expressed in transfected cells; host or cells: Flp-In T-REx-293 cells stably expressing RTP1S, Gαolf and Ric8-b
T5 sequence (Q8NG97 1-314): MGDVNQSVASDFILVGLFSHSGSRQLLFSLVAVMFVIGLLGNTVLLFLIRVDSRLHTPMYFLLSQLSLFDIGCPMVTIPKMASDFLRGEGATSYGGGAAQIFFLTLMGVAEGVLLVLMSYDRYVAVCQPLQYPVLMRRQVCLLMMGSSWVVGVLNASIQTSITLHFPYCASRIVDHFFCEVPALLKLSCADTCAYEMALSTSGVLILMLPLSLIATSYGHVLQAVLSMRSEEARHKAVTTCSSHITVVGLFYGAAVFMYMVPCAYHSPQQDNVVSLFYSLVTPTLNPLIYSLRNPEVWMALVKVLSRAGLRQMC
Particulars: OR2Z1, 500 μM n-hexanal, with the TAR-Tat system (hOR/pHEK), n = 1. The protocol: as §1

Test [6] concerns the target T6, OR8B8 (Homo sapiens, UniProt Q15620).
T6 construct: Lucy tag (N); FLAG (N); Rho tag (N); expressed in transfected cells; host or cells: Flp-In T-REx-293 cells stably expressing RTP1S, Gαolf and Ric8-b
T6 sequence (Q15620 1-311): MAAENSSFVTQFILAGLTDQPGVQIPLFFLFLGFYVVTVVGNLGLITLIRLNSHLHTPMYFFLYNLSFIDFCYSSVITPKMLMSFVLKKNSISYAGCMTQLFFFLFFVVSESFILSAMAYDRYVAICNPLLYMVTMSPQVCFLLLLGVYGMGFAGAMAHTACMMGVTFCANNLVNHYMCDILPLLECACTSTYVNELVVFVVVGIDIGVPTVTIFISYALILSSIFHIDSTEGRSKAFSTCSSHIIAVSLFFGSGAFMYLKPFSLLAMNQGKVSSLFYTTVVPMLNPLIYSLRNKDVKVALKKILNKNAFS
Particulars: OR8B8, 500 μM n-hexanal, with the TAR-Tat system (hOR/pHEK), n = 1. The protocol: as §1

Where [7] appears, read: with the TAR-Tat system (hOR/pHEK).
Setting [8] is: without the TAR-Tat system (control plasmid).

SMILES strings stand for the structures. Some results are limits rather than exact numbers.

Consider `CCCCCC=O` [n-hexanal], for which the “response value (ΔL)” value in test [1] is reported as over 500; in test [2] (setting [7]) it was 1580; in test [2] (setting [8]), 549; in test [3] (setting [7]), 6675; in test [3] (setting [8]) it was 974; in test [4] it was over 500. The “response value (ΔL)” value in test [5] and in test [6] was over 500 each time.
